Reference: the NIST ThermoML archive (doi:10.1016/j.jct.2015.04.029)
Numbers after ± are expanded uncertainties.

How the values were obtained:
[1] = for mass density: 101.33 kPa, Vibrating tube method; for mass density / surface tension liquid-gas: Liquid; for surface tension liquid-gas: Maximal bubble pressure; for Glass transition temperature: DSC
[2] = refractive index (Na D-line) (dimensionless); settings: 101.33 kPa, Liquid, Standard Abbe refractometry

| Structure (SMILES) | mass density ([1]; 298.15 K) [kg/m3] | surface tension liquid-gas ([1]; 298.15 K) [mN/m] | mass density ([1]; 303.15 K) [kg/m3] | surface tension liquid-gas ([1]; 303.15 K) [mN/m] | mass density ([1]; 308.15 K) [kg/m3] | surface tension liquid-gas ([1]; 308.15 K) [mN/m] | mass density ([1]; 313.15 K) [kg/m3] | surface tension liquid-gas ([1]; 313.15 K) [mN/m] | mass density ([1]; 318.15 K) [kg/m3] | surface tension liquid-gas ([1]; 318.15 K) [mN/m] | mass density ([1]; 323.15 K) [kg/m3] | surface tension liquid-gas ([1]; 323.15 K) [mN/m] | mass density ([1]; 328.15 K) [kg/m3] | surface tension liquid-gas ([1]; 328.15 K) [mN/m] | mass density ([1]; 333.15 K) [kg/m3] | surface tension liquid-gas ([1]; 333.15 K) [mN/m] | mass density ([1]; 338.15 K) [kg/m3] | surface tension liquid-gas ([1]; 338.15 K) [mN/m] | Glass transition temperature [1] [°C] | refractive index ([2]; 298.15 K) | further results |
| --- | --- | --- | --- | --- | --- | --- | --- | --- | --- | --- | --- | --- | --- | --- | --- | --- | --- | --- | --- | --- | --- |
| CCCCn1cc[n+](C)c1.N[C@@H](CO)C(=O)[O-] [1-butyl-3-methylimidazolium L-serinate] | 1156.04 ± 1.1 | 45.4 ± 0.4 | 1152.82 ± 1.1 | 45.2 ± 0.4 | 1149.61 ± 1.1 | 45 ± 0.4 | 1146.45 ± 1.1 | 44.7 ± 0.4 | 1143.31 ± 1.1 | 44.4 ± 0.4 | 1140.08 ± 1.1 | 44.3 ± 0.4 | 1136.91 ± 1.1 | 44 ± 0.4 | 1133.81 ± 1.1 | 43.8 ± 0.4 | 1130.64 ± 1.1 | 43.5 ± 0.4 | -47.20 ± 1 | 1.5143 ± 0.0005 | refractive index ([2]; 303.15 K): 1.5135 ± 0.0005; refractive index ([2]; 308.15 K): 1.5126 ± 0.0005; refractive index ([2]; 313.15 K): 1.5114 ± 0.0005; refractive index ([2]; 318.15 K): 1.5106 ± 0.0005; refractive index ([2]; 323.15 K): 1.5096 ± 0.0005; refractive index ([2]; 328.15 K): 1.5091 ± 0.0005; refractive index ([2]; 333.15 K): 1.5077 ± 0.0005; refractive index ([2]; 338.15 K): 1.5069 ± 0.0005 |
| CCC[n+]1ccn(C)c1.N[C@@H](CO)C(=O)[O-] [1-methyl-3-propylimidazolium L-serinate] | 1181.51 ± 1.1 | 46.8 ± 0.5 | 1178.34 ± 1.1 | 46.6 ± 0.4 | 1175.19 ± 1.1 | 46.4 ± 0.4 | 1172.03 ± 1.1 | 46.1 ± 0.4 | 1168.88 ± 1.1 | 45.8 ± 0.4 | 1165.67 ± 1.1 | 45.6 ± 0.4 | 1162.6 ± 1.1 | 45.4 ± 0.4 | 1159.49 ± 1.1 | 45.1 ± 0.4 | 1156.42 ± 1.1 | 44.9 ± 0.4 | -54.5 ± 1 | 1.5179 ± 0.0005 | refractive index ([2]; 303.15 K): 1.5165 ± 0.0005; refractive index ([2]; 308.15 K): 1.5153 ± 0.0005; refractive index ([2]; 313.15 K): 1.5141 ± 0.0005; refractive index ([2]; 318.15 K): 1.5131 ± 0.0005; refractive index ([2]; 323.15 K): 1.5123 ± 0.0005; refractive index ([2]; 328.15 K): 1.5112 ± 0.0005; refractive index ([2]; 333.15 K): 1.51 ± 0.0005; refractive index ([2]; 338.15 K): 1.5086 ± 0.0005 |
